Data published in patent US12209080B2, “Polymorphic forms of kinase inhibitor compound, pharmaceutical composition containing same, preparation method therefor and use thereof” (EQUINOX SCIENCES, LLC, priority 2016, dated 2025).
Values after ≈ are worked out from the molar mass of the structure shown.

Assays:
[1] = Dissolution rate of crystalline forms 1 and 2; type: physicochemical
Source text: (§1) The moisture content, solubility and dissolution rate of the crystalline forms 1 and 2 were detected using the methods described above. The results are shown in Table 21, which indicate that the solubility, dissolution, and moisture content (total pharmaceutical properties) of the crystalline form 1 are higher than that of the crystalline form 2. Moreover, the crystalline forms 1 and 2 have the highest solubility in methanol.

[2] = Thermodynamic stability experiment in solvents at 60° C. (XRD); type: physicochemical; details: one day
Method: The crystalline form 1, crystalline form 2, crystalline form 3 and crystalline form 7 of the compound of formula I were mixed with acetone, ethyl acetate, methanol, water and tetrahydrofuran respectively, and then kept at 60° C. for one day for the investigation of the thermodynamic stability of each crystalline form. Insoluble solid was recovered by filtration and analyzed by XRD. Analysis conditions: Shimadzu XRD-6000, CuK source (1.54056 A) 40 kV, 30 mA; detection angle: 5-50°, speed: 5°/min.

[3] = Solubility of crystalline forms 1 and 2 in various media; type: physicochemical
Source text: as §1

[4] = Pharmacokinetic experiment, oral administration; type: in vivo, Sprague Dawley rats; details: rat, oral 10 mg/kg; for AUC(0-t) / Cmax: suspension in 0.5% CMC, 10 mg/kg
Method: Twelve Sprague Dawley rats with weight of 230-250 g were randomly divided into 2 groups, wherein each group consisted of 3 males and 3 females. Crystalline forms 1 and 2 were separately prepared as suspensions in 0.5% carboxymethylcellulose (CMC). The rats were fasted for 12 hours with free access to water and then orally administered at a dose of 10 mg/kg. Blood samples (0.2-0.3 ml) before and after 15, 30, 60, 120, 240, 360, 480, 720, 1440 minutes of the oral administration were collected in heparin anticoagulation tubes, which were then centrifuged to obtain plasma. The plasma was stored at −20° C., followed by analysis using API 4000 MS in conjunction with a HPLC unit. The pharmacokinetic parameters Cmax and AUC were calculated according to the determined plasma concentrations and summarized in Table 22.

[5] = Grinding stability experiment (XRD); type: physicochemical; details: ground and sieved, US standard 200-300 mesh
Method: Crystalline form 1 was ground and sieved. The US standard 200-300 mesh sieved samples were collected and XRD analyzed. Analysis conditions: Shimadzu XRD-6000, CuK source (1.54056 Å) 40 kV, 30 mA; detection angle: 5-50°, speed: 5°/min.

[6] = Tissue accumulation experiment in tumor-bearing mice; type: in vivo, BALB/cA nude mice; set-up: content in Tumor / content in Liver / content in Kidney / content in Heart / content in Lung / content in Muscle / content in Brain: unit not given here
Method: Human colon cancer H-29 cells were implanted into the armpits of BALB/cA nude mice. Seven days after the implantation of H-29 cells, 8 female mice were administered with the crystalline form 1 (twice a day) at 40 mg/kg or sunitinib at 40 mg/kg (once a day). The drug administration was continuous for 21 days. Plasma, tissue and tumor samples were collected for analysis 4 hours after the administration on the 22nd day morning.

[7] = Solubility determination in water by HPLC; type: physicochemical; details: suspension in water, 25° C.
Method: HPLC detection was performed using the crystalline form 1 as a standard, with its concentration of 204.2 μg*mL^−1 and its content set as 100%, and the detection was performed 7 times. The average peak area was 159.691 mAU*min (retention time was 7.4 min).

[8] = Determination of solubility in conventional solvents, visual inspection method; type: physicochemical; details: thermodynamic from solid, 25° C.
Source text: If the sample is still not dissolved at a specific concentration, its solubility is expressed as “<specific concentration”;

[9] = Dynamic vapor sorption (DVS) / moisture absorption; type: physicochemical; details: for weight change (DVS): range of 0% RH to 80% RH, 25° C.
Method: (4) Dynamic Water Adsorption (DVS), TA Instruments Q5000 TGA; controlling software: Thermal Advantage; analysis software: Universal Analysis; sample plate: platinum crucible; amount of the sample to be detected: 1-10 mg; protective gas: nitrogen; gas flow fate: 10 mL/min; detection method: equilibration at 25° C., humidity: 0%, isothermal treatment: 90 min, weight change to be detected: from 0% RH to 80% RH;
as §1

[10] = 40 mg/kg for 21 days (crystalline form 1 twice a day, sunitinib once a day), 4 hours after administration on day 22

SMILES: Cc1[nH]c(/C=C2\C(=O)Nc3ccc(F)cc32)c(C)c1C(=O)N[C@H]1CCN(C(=O)N(C)C)C1 [crystalline form 1, 5-[5-fluoro-2-oxo-1,2-dihydro-indole-(3Z)-ylidenemethyl]-2,4-dimethyl-1H-pyrrole-3-carboxylic acid ((S)-1-dimethylcarbamoyl-pyrrolidin-3-yl)-amide]
- Internal dissolution rate [1]: 0.022 mg/(min · cm^2)
- crystalline form recovered (XRD) ([2]; acetone, ethyl acetate, methanol or water, conversion not complete in methanol): converted to crystalline form 2
- crystalline form recovered (XRD) ([2]; tetrahydrofuran (THF)): to crystalline form 3
- Solubility ([3]; 1% Tween 80): 60 µg/mL (≈ 137 µM)
- Solubility ([3]; 1% sodium lauryl sulfate): 3480 µg/mL (≈ 7920 µM)
- Solubility ([3]; 2% sodium lauryl sulfate): 3790 µg/mL (≈ 8620 µM)
- Solubility ([3]; PEG 400): 3660 µg/mL (≈ 8330 µM)
- Solubility ([3]; acetonitrile): 680 µg/mL (≈ 1550 µM)
- Solubility ([3]; aqueous solution with pH of 1.0-7.5): 0.12 to 0.53 µg/mL
- solubility at 4 h ([3]; artificial gastric juice, simulated gastric fluid, thermodynamic from solid, second line of this heading (Table 21 r21)): 0.43 µg/mL (≈ 0.978 µM)
- Solubility ([3]; ethanol): 2460 µg/mL (≈ 5600 µM)
- Solubility ([3]; glycerin): 570 µg/mL (≈ 1300 µM)
- Solubility ([3]; methanol): 8170 µg/mL (≈ 18600 µM)
- Cmax relative to crystalline form 2 [4]: about 4 times
- exposure (AUC) relative to crystalline form 2 [4]: about 3 times
- AUC(0-t) ([4]; average value): 10488.3 ng·h/mL
- Cmax ([4]; average value): 1340.3 ng/mL
- AUC(0-t) ([4]; female 1): 3536.6 ng·h/mL
- Cmax ([4]; female 1): 593.9 ng/mL
- AUC(0-t) ([4]; female 2): 28571.4 ng·h/mL
- Cmax ([4]; female 2): 2649.0 ng/mL
- AUC(0-t) ([4]; female 3): 16634.2 ng·h/mL
- Cmax ([4]; female 3): 2033.3 ng/mL
- AUC(0-t) ([4]; male 1): 3180.0 ng·h/mL
- Cmax ([4]; male 1): 716.6 ng/mL
- AUC(0-t) ([4]; male 2): 6766.0 ng·h/mL
- Cmax ([4]; male 2): 1071.3 ng/mL
- AUC(0-t) ([4]; male 3): 4241.5 ng·h/mL
- Cmax ([4]; male 3): 977.7 ng/mL
- stability during grinding (XRD pattern before and after) [5]: remained stable
- content in Brain [6, 10]: 9.3
- content in Heart [6, 10]: 124.8
- content in Kidney [6, 10]: 418.3
- content in Liver [6, 10]: 1,715.3
- content in Lung [6, 10]: 144.9
- content in Muscle [6, 10]: 77.6
- content in Plasma [6, 10]: 191.6
- content in Tumor [6, 10]: 153.4
- content in plasma, compared with sunitinib ([6]; 40 mg/kg twice a day, 21 days): comparable to that of sunitinib
- tissue accumulation in all tested tissues, compared with sunitinib ([6]; 40 mg/kg twice a day, 21 days): significantly lower than that of sunitinib
- concentration (solubility in water) ([7]; 0.5 hours): 1.12 µg/mL
- concentration (solubility in water) ([7]; 4 hours): 1.32 µg/mL
- Solubility ([8]; acetone, organic solvent or mixture, read-out: solubility in acetone): 1000 to 2500 µg/mL (≈ 2280 to 5690 µM)
- Solubility ([8]; acetonitrile, organic solvent or mixture, read-out: solubility in acetonitrile): < 1000 µg/mL
- Solubility ([8]; ethanol, organic solvent or mixture, read-out: solubility in ethanol): 1000 to 2500 µg/mL (≈ 2280 to 5690 µM)
- Solubility ([8]; ethyl acetate, organic solvent or mixture, read-out: solubility in ethyl acetate): < 1000 µg/mL
- Solubility ([8]; methanol, organic solvent or mixture, read-out: solubility in methanol): 5000 to 12500 µg/mL (≈ 11400 to 28400 µM)
- Solubility ([8]; methyl tert-butyl ether, organic solvent or mixture, read-out: solubility in methyl tert-butyl ether): < 1000 µg/mL
- Solubility ([8]; n-heptane, organic solvent or mixture, read-out: solubility in n-heptane): < 1000 µg/mL
- Solubility ([8]; tetrahydrofuran, organic solvent or mixture, read-out: solubility in tetrahydrofuran): 1000 to 2500 µg/mL (≈ 2280 to 5690 µM)
- Solubility ([8]; toluene, organic solvent or mixture, read-out: solubility in toluene): < 1000 µg/mL
- Solubility ([8]; water, read-out: solubility in water): < 1000 µg/mL
- Moisture absorption ([9]; RH 50%): 2.015%
- Moisture absorption ([9]; RH 80%): 2.578%
- weight change (DVS) [9]: about 2.8%
- weight change (DVS) ([9]; listed as Crystalline form 1): 2.8%
